In US11691974B2, “3,9-diazaspiro[5,5]undecane compound as FLT3 and AXL inhibitors” (MEDSHINE DISCOVERY INC., priority 2018, dated 2023):

Assays:
FLT3(ITD, F691L) = biological target: T1, FLT3(ITD, F691L) (Homo sapiens, UniProt P36888, F691L, form not given); assay: KINOMEscan Kd determination, FLT3 mutant; assay type: binding; details: ratio of Kd versus compound B
T1 sequence (P36888 1-993 F691L): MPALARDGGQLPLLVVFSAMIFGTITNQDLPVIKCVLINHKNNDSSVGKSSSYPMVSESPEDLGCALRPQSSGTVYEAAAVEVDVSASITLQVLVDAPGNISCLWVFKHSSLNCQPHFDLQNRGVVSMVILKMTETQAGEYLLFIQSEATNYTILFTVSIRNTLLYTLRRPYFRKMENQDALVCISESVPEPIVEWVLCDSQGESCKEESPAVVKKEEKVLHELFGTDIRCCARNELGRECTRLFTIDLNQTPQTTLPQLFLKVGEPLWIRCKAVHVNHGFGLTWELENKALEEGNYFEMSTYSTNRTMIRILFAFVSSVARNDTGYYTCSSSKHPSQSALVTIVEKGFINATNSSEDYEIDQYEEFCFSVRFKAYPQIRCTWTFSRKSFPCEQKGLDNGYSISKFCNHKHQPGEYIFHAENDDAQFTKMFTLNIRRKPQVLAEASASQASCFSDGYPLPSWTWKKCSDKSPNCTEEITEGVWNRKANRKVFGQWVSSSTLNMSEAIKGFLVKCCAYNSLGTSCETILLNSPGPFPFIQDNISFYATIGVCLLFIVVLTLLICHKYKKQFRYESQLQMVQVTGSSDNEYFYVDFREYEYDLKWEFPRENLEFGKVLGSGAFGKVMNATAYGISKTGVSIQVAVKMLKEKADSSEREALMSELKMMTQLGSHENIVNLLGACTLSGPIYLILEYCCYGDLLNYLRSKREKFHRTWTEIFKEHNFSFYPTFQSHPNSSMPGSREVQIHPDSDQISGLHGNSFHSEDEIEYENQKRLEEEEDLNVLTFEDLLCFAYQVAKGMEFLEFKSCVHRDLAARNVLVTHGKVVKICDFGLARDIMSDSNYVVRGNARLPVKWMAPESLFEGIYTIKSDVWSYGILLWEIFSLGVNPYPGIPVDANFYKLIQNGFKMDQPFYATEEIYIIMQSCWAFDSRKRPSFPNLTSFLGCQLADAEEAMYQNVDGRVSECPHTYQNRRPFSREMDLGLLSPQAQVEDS
Description: (§1) The assay was carried out using KINOMEscan™ technology. The assay compounds were stored in 100% DMSO. The assay was carried out by means of 3-fold dilution and 11-point fitting. All compounds used for Kd determination were dispersed by ultrasound, then directly diluted and tested. All reactions were carried out in a 384-well polypropylene plate. Each portion has a final volume of 0.02 ml. The plate was incubated with shaking at room temperature for 1 hour, and then processed. The kinase concentration in the eluent was finally determined by qPCR method. Kd was obtained by fitting.

FLT3(K663Q) = biological target: T2, FLT3(K663Q) (Homo sapiens, UniProt P36888, K663Q); assay: KINOMEscan Kd determination, FLT3 mutant; assay type: binding; details: ratio of Kd versus compound B
T2 sequence (P36888 27-993 K663Q): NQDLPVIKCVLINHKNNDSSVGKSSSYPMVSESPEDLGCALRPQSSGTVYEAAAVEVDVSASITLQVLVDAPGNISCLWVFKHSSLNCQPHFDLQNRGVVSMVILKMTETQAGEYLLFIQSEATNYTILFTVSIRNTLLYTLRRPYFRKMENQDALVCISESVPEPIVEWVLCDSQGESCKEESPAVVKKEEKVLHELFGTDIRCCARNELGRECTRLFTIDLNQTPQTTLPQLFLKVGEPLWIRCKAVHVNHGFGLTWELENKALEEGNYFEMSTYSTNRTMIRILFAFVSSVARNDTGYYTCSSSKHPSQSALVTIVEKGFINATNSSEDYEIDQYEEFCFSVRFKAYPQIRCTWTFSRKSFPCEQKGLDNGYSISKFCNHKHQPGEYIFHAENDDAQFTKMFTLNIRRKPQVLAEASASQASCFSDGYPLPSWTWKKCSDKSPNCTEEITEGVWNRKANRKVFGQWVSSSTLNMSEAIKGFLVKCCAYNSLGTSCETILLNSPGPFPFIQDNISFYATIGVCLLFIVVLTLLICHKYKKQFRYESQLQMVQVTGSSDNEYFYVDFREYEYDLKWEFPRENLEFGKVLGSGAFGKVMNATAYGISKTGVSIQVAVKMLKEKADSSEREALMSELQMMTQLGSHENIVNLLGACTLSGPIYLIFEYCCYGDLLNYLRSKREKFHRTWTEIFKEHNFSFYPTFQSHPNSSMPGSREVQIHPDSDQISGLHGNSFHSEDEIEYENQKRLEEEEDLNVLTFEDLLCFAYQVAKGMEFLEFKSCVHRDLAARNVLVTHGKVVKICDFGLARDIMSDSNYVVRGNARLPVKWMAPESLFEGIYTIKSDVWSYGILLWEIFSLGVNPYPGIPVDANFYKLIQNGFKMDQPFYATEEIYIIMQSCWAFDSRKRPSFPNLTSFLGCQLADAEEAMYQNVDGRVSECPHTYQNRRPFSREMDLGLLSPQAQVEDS
Description: as §1

[1] = In vivo pharmacokinetic study in rats; details: male, SD, rat, plasma
Description: SD male rats aged 7 to 10 weeks were selected. The doses for intravenous and oral administration were 1 mg/kg and 2.5 mg/kg, respectively. The rats were fasted for at least 12 hours before the administration, and resumed feeding 4 hours after the administration. The rats had free access to water throughout the assay period.
On the day of the assay, the animals in the intravenous group were administrated the corresponding compound through a single injection in the tail vein at an administration volume of 5 mL/kg; the oral group were administrated the corresponding compound through a single intragastric gavage at an administration volume of 10 mL/kg. The animals were weighed before administration, and the administration volume was calculated based on the body weight. The time for collecting samples was: 0.083 (the injection group), 0.25, 0.5, 1, 2, 4, 6, 8, 24 h. About 200 μL of whole blood was collected from the jugular vein at each time point to prepare plasma for concentration determination by high-performance liquid chromatography-tandem mass spectrometry (LC-MS/MS). All animals were euthanized by CO2 anesthesia after collecting the PK samples at the last time point. The plasma concentrations were processed by non-compartmental model of WinNonlin™ Version 6.3 (Pharsight, Mountain View, Calif.) pharmacokinetic software, and the pharmacokinetic parameters were calculated by the linear logarithm trapezoidal method.

CCc1nc(C(N)=O)c(Nc2ccc(N3CCC4(CCN(C)CC4)CC3)c(C)c2)nc1NC1CCOCC1
activity for FLT3 (ITD, F691L) higher than that of compound B (FLT3(ITD, F691L)): 3.6 times
activity for FLT3 (K663Q) higher than that of compound B (FLT3(K663Q)): 5.9 times
AUC(0-t) ([1]; iv, injection 1 mg/kg): 0.457 µM·h
clearance ([1]; iv, injection 1 mg/kg): 61.2 mL/min/kg
half-life ([1]; iv, injection 1 mg/kg): 2.99 h
Vd ([1]; iv, injection 1 mg/kg, read-out: Vdss): 13.3 L/kg
AUC(0-t) ([1]; oral administration 2.5 mg/kg): 0.51 µM·h
bioavailability ([1]; oral administration 2.5 mg/kg): 44.7%
